Assay results as given in ChEMBL document CHEMBL3392978 (Eur J Med Chem, 2015).

Experiments:
[1] = system: HepG2; assay: Cytotoxicity against human HepG2 cells assessed as reduction in cell viability after 72 hrs by MTT assay; format: functional, cell-based; conditions: HepG2, 72 h
[2] = system: NCI-H522; assay: Growth inhibition of human NCI-H522 cells at 10 uM after 72 hrs by MTT assay; format: functional; conditions: NCI-H522, 72 h, read-out: GI
[3] = system: SW480; assay: Growth inhibition of human SW480 cells at 10 uM after 72 hrs by MTT assay; format: functional; conditions: SW480, 72 h, read-out: GI
[4] = system: A-375; assay: Cytotoxicity against human A375 cells assessed as reduction in cell viability after 72 hrs by MTT assay; format: functional, cell-based; conditions: A-375, 72 h
[5] = system: HepG2; assay: Growth inhibition of human HepG2 cells at 10 uM after 72 hrs by MTT assay; format: functional; conditions: HepG2, 72 h, read-out: GI
[6] = system: A-375; assay: Growth inhibition of human A375 cells at 10 uM after 72 hrs by MTT assay; format: functional; conditions: A-375, 72 h, read-out: GI
[7] = system: MDA-MB-453; assay: Growth inhibition of human MDA-MB-453 cells at 10 uM after 72 hrs by MTT assay; format: functional; conditions: MDA-MB-453, 72 h, read-out: GI
[8] = system: MCF7; assay: Growth inhibition of human MCF7 cells at 10 uM after 72 hrs by MTT assay; format: functional; conditions: MCF7, 72 h, read-out: GI
[9] = target: Serine/threonine-protein kinase B-raf (Homo sapiens, UniProt P15056); assay: Inhibition of BRAF (unknown origin) incubated for 15 mins by fluorescence based assay
[10] = system: SW480; assay: Cytotoxicity against human SW480 cells assessed as reduction in cell viability after 72 hrs by MTT assay; format: functional, cell-based; conditions: SW480, 72 h
[11] = system: MDA-MB-453; assay: Cytotoxicity against human MDA-MB-453 cells assessed as reduction in cell viability after 72 hrs by MTT assay; format: functional, cell-based; conditions: MDA-MB-453, 72 h
[12] = system: NCI-H522; assay: Cytotoxicity against human NCI-H522 cells assessed as reduction in cell viability after 72 hrs by MTT assay; format: functional, cell-based; conditions: NCI-H522, 72 h
[13] = system: A-375; assay: Antitumor activity against human A375 cells xenografted in nude Ncr mouse assessed as reduction in tumor growth at 50 mg/kg, ig dosed once daily for 23 days; format: functional; conditions: A-375, po, 552 h, route intragastric, read-out: TGI

Sequence of Serine/threonine-protein kinase B-raf (P15056 whole entry): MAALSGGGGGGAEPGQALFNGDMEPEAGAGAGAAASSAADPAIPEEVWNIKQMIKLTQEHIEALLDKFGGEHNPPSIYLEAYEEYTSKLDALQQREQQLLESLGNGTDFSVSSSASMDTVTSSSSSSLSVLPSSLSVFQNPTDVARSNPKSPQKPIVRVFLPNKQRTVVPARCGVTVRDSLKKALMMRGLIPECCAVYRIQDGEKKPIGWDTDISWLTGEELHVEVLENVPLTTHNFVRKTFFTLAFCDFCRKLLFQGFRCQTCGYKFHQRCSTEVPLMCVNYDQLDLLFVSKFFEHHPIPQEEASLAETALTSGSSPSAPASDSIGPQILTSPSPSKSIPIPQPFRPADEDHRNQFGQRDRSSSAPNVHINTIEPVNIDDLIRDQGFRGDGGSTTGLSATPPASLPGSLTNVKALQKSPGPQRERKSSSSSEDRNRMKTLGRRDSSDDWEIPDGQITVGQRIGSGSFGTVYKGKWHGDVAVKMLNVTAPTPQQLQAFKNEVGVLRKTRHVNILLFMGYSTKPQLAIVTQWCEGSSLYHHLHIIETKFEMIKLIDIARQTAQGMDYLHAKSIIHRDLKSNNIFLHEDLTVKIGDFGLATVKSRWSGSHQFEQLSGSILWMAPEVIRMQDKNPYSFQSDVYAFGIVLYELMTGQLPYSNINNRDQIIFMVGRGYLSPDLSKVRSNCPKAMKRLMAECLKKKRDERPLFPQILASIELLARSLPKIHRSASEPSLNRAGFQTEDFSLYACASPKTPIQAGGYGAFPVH

Row | IC50 [9] [µM] | Structure (SMILES) | IC50 [1] [µM] | inhibition of growth at 10 µM [2] [%] | inhibition of growth at 10 µM [3] [%] | IC50 [4] [µM] | inhibition of growth at 10 µM [5] [%] | inhibition of growth at 10 µM [6] [%] | inhibition of growth at 10 µM [7] [%] | inhibition of growth at 10 µM [8] [%] | IC50 [10] [µM] | IC50 [11] [µM] | IC50 [12] [µM] | inhibition in vivo at 50 mg/kg [13] [%]
1 | – | Cc1ccc(NC(=O)c2ccc(Cl)c(C(F)(F)F)c2)cc1C(=O)Nc1ccc(-c2ncc[nH]2)nc1 | 6.17 | -11.4 | 16.7 | 14.4 | 47.9 | 42.9 | 12.5 | 30.5 | – | – | – | –
2 | – | Cc1cc(C(=O)Nc2ccc(C)c(C(=O)Nc3ccc(-c4ncc[nH]4)nc3)c2)ccc1Cl | – | 12.6 | 21.4 | – | 32 | 37.3 | 27.7 | 36.2 | – | – | – | –
3 | – | Cc1ccc(NC(=O)c2ccc(C(F)(F)F)cc2)cc1C(=O)Nc1ccc(-c2ncc[nH]2)nc1 | – | 16.5 | 28.1 | – | 25.7 | 40.4 | 26 | 36.4 | – | – | – | –
4 | – | Cc1ccc(C(=O)Nc2ccc(C)c(C(=O)Nc3ccc(-c4ncc[nH]4)nc3)c2)cc1 | – | 31.8 | 26.3 | – | 17.8 | 37.6 | 16.5 | 36.5 | – | – | – | –
5 | – | Cc1ccc(NC(=O)c2cccc(F)c2)cc1C(=O)Nc1ccc(-c2ncc[nH]2)nc1 | – | 8.5 | 10.4 | – | 2.1 | 27.9 | 14.9 | 29.2 | – | – | – | –
6 | – | Cc1ccc(NC(=O)c2ccc(Cl)c(Cl)c2)cc1C(=O)Nc1ccc(-c2ncc[nH]2)nc1 | – | 2 | 13.7 | – | 5.5 | 30.6 | 24.4 | 33 | – | – | – | –
7 | 2.47 | COc1cccc(C(=O)Nc2ccc(C)c(C(=O)Nc3ccc(-c4ncc[nH]4)nc3)c2)c1 | – | 8.7 | 17.6 | – | -4.9 | 28.2 | 18 | 27.9 | – | – | – | –
8 | – | Cc1ccc(NC(=O)c2ccc(F)cc2)cc1C(=O)Nc1ccc(-c2ncc[nH]2)nc1 | – | 6.3 | 10.1 | – | 25 | 24.9 | 22 | 28.8 | – | – | – | –
9 | – | Cc1ccc(NC(=O)c2ccc(Cl)cc2)cc1C(=O)Nc1ccc(-c2ncc[nH]2)nc1 | – | 6.4 | 17.7 | – | 12.1 | 23.9 | 21.4 | 32.4 | – | – | – | –
10 | – | Cc1ccc(NC(=O)c2cccc([N+](=O)[O-])c2)cc1C(=O)Nc1ccc(-c2ncc[nH]2)nc1 | – | 8.9 | 16.7 | – | 11.1 | 17.6 | 22.3 | 34.9 | – | – | – | –
11 | 40.4 | COc1ccc(C(=O)Nc2ccc(C)c(C(=O)Nc3ccc(-c4ncc[nH]4)nc3)c2)cc1 | – | 27.1 | 26.5 | – | 18.7 | 18.7 | 23.5 | 36 | – | – | – | –
12 | – | Cc1ccc(NC(=O)c2cccc(Br)c2)cc1C(=O)Nc1ccc(-c2ncc[nH]2)nc1 | – | 10.4 | 24.4 | – | 6.4 | 31.9 | 20.2 | 33.2 | – | – | – | –
13 | – | Cc1ccc(NC(=O)c2ccc(Br)cc2)cc1C(=O)Nc1ccc(-c2ncc[nH]2)nc1 | – | 13.5 | 23.9 | – | 14.8 | 30.1 | 18.9 | 31.9 | – | – | – | –
14 | – | O=C(Nc1ccc(Cl)c(C(=O)Nc2ccc(-c3ncc[nH]3)nc2)c1)c1cccc(C(F)(F)F)c1 | – | -27.4 | 26.9 | – | 39.5 | 44.5 | 46.1 | 39 | – | – | – | –
15 | – | O=C(Nc1ccc(Cl)c(C(=O)Nc2ccc(-c3ncc[nH]3)nc2)c1)c1ccc(C(F)(F)F)cc1 | – | -22.9 | 15.1 | – | 44 | 47.6 | 48.4 | 35.3 | – | – | – | –
16 | – | Cc1cccc(C(=O)Nc2ccc(Cl)c(C(=O)Nc3ccc(-c4ncc[nH]4)nc3)c2)c1 | – | 5.3 | 30.8 | – | 24.8 | 40.8 | 23.6 | 34 | – | – | – | –
17 | – | Cc1ccc(C(=O)Nc2ccc(Cl)c(C(=O)Nc3ccc(-c4ncc[nH]4)nc3)c2)cc1 | – | 17.2 | 21.1 | – | -2.7 | 30.1 | 23.2 | 22.4 | – | – | – | –
18 | – | O=C(Nc1ccc(Cl)c(C(=O)Nc2ccc(-c3ncc[nH]3)nc2)c1)c1cccc(F)c1 | – | 7.6 | 16.7 | – | -12.9 | 32.3 | 19 | 29.7 | – | – | – | –
19 | – | O=C(Nc1ccc(Cl)c(C(=O)Nc2ccc(-c3ncc[nH]3)nc2)c1)c1cccc(Cl)c1 | – | -1.8 | 15.5 | – | 2.9 | 32.4 | 10.7 | 29.8 | – | – | – | –
20 | – | O=C(Nc1ccc(Cl)c(C(=O)Nc2ccc(-c3ncc[nH]3)nc2)c1)c1ccc(Cl)c(Cl)c1 | 15.2 | -21.1 | 47.2 | 9.39 | 57 | 46.1 | 45.3 | 35.5 | 9.34 | 11.4 | – | –
21 | – | COc1cccc(C(=O)Nc2ccc(Cl)c(C(=O)Nc3ccc(-c4ncc[nH]4)nc3)c2)c1 | – | -2.9 | 17.6 | – | 2.6 | 34.9 | 19.4 | 29.6 | – | – | – | –
22 | – | O=C(Nc1ccc(Cl)c(C(=O)Nc2ccc(-c3ncc[nH]3)nc2)c1)c1ccc(F)cc1 | – | -8.8 | 14.9 | – | -1.3 | 30.1 | 21.5 | 33.4 | – | – | – | –
23 | – | O=C(Nc1ccc(Cl)c(C(=O)Nc2ccc(-c3ncc[nH]3)nc2)c1)c1ccc(Cl)cc1 | – | -1.9 | 13.4 | – | 38.9 | 29.6 | 36.4 | 31.4 | – | – | – | –
24 | – | O=C(Nc1ccc(Cl)c(C(=O)Nc2ccc(-c3ncc[nH]3)nc2)c1)c1ccc(Cl)c(Br)c1 | – | -15.4 | 12.4 | – | 35.5 | 38.4 | 15.1 | 29.1 | – | – | – | –
25 | – | O=C(Nc1cccc(C(F)(F)F)c1)c1ccc(Cl)c(C(=O)Nc2ccc(-c3ncc[nH]3)nc2)c1 | – | -18 | 18.9 | – | 29.9 | 44.1 | 19.7 | 25.9 | – | – | – | –
26 | – | O=C(Nc1ccc(Cl)cc1)c1ccc(Cl)c(C(=O)Nc2ccc(-c3ncc[nH]3)nc2)c1 | – | -20 | 12.7 | – | 18.9 | 21.9 | 16.5 | 19.4 | – | – | – | –
27 | – | O=C(Nc1cccc(Cl)c1)c1ccc(Cl)c(C(=O)Nc2ccc(-c3ncc[nH]3)nc2)c1 | – | -16.2 | 5.8 | – | 19.4 | 26.1 | 11.6 | 26 | – | – | – | –
28 | – | O=C(Nc1ccc(Cl)c(Cl)c1)c1ccc(Cl)c(C(=O)Nc2ccc(-c3ncc[nH]3)nc2)c1 | 3.97 | -28.6 | 13.4 | – | 57 | 28.4 | 36.3 | 25 | – | – | – | –
29 | – | CNC(=O)c1cc(Oc2ccc(NC(=O)Nc3ccc(Cl)c(C(F)(F)F)c3)cc2)ccn1 [SORAFENIB] | 5.74 | 39.4 | 28.1 | 16.2 | 59.9 | 44.1 | 36.9 | 23 | – | – | 19.3 | 76.6
